Where a name gives a salt, the structure may show the parent alone.

The target in the test is human PAI-1 (Homo sapiens, UniProt P05121). Nature of the test: Measurement of PAI-1 inhibitory activity of compound group 1 (t-PA, Spectrozyme t-PA chromogenic substrate). As to conditions: read-out: PAI-1 activity %.
Sequence of human PAI-1 (P05121 24-402): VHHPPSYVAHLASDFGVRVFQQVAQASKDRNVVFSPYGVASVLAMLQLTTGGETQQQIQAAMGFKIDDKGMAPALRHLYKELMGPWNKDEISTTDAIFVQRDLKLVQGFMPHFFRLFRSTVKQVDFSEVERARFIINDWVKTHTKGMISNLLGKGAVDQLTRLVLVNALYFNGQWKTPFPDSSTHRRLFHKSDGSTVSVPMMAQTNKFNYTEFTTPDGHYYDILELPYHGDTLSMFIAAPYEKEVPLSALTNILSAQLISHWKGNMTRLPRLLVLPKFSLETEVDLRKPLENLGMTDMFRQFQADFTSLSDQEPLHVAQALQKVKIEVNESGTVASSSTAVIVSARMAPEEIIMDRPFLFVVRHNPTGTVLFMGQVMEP
Description: Subsequently, human-derived tissue plasminogen activator (t-PA) (manufactured by American Diagnostica, Inc. (USA); the same applies hereinafter) adjusted to 0.05 pmol/μL was added thereto, and the mixture was further incubated at 37° C. for 60 minutes. Then, 0.25 mM of Spectrozyme t-PA synthetic substrate (manufactured by American Diagnostica, Inc. (USA); the same applies hereinafter), which is a chromogenic substrate, was added. The final mixture contained 50 mM Tris-HCl (pH 8), 150 mM NaCl, 1% DMSO, 0.1% PEG-6000, 0.2 mM CHAPS, 5 nM PAI-1, 2 nM t-PA, 0.2 mM Spectrozyme t-PA synthetic substrate, and each compound (10 μM or 2.5 μM).
Free radical p-nitroaniline removed from the chromogenic substrate (Spectrozyme t-PA) by t-PA action was measured using a spectrophotometer at an absorbance of 405 nm at 20-minute intervals, for 120 minutes.
Consider `O=C(O)c1cc(Cl)ccc1NC(=O)N1CCN(C(c2ccccc2)c2ccccc2)CC1` [Example 75, 5-chloro-2-({[4-(diphenylmethyl)piperazin-1-yl]carbonyl}amino)benzoic acid hydrochloride], for which the activity at 2.5 µM stood at 86.4% and the activity at 10 µM is 4.7%.

In the case of `CC(C)(C)c1cccc(OCC(=O)Nc2ccc(Cl)cc2C(=O)O)c1` [Example 16, 2-{[(3-tert-butylphenoxy)acetyl]amino}-5-chlorobenzoic acid], the activity at 2.5 µM is 77.4% and the activity at 10 µM was 21.9%.

Take `O=C(Cn1ccc2cc(-c3ccccc3)ccc21)Nc1ccc(Cl)cc1C(=O)O` [Example 51, 5-chloro-2-{[(5-phenyl-1H-indol-1-yl)acetyl]amino}benzoic acid]: the activity at 2.5 µM worked out at 37.8% and the activity at 10 µM stood at 1.7%.

In the case of `O=C(Nc1ccc(Cl)cc1C(=O)O)C1=CC2(CCCCC2)CCC1` [Example 84, 5-chloro-2-[(spiro[5.5]undec-1-en-2-ylcarbonyl)amino]benzoic acid], the activity at 2.5 µM is 97% and the activity at 10 µM was found to be 5.5%.

Take `O=C(Nc1ccc(Cl)cc1C(=O)O)c1ccc(-n2cccc2)cc1` [Salt of Known compound (7), 5-chloro-2-({[4-(1H-pyrrol-1-yl)phenyl]carbonyl}amino)benzoic acid hydrochloride, reference compound]: the activity at 2.5 µM was found to be 100% and the activity at 10 µM was determined as 3.7%.

As to `O=C(O)c1cc(Cl)ccc1NC(=O)c1cc(-c2ccccc2)nc2ccccc12` [Example 107, sodium 5-chloro-2-{[(2-phenylquinolin-4-yl)carbonyl]amino}benzoate], the activity at 2.5 µM was 100% and the activity at 10 µM is 6.7%.

Turning to `O=C(Nc1ccc(Cl)cc1C(=O)O)c1ccc(C#CC2CCCCC2)cc1` [Example 88, 5-chloro-2-({[4-(cyclohexylethynyl)phenyl]carbonyl}amino)benzoic acid], the activity at 2.5 µM came to 35.5% and the activity at 10 µM stood at 0.8%.

`COc1ccccc1-c1cccc(OCC(=O)Nc2ccc(Cl)cc2C(=O)O)c1` [Example 61, 5-chloro-2-({[(2′-methoxybiphenyl-3-yl)oxy]acetyl}amino)benzoic acid]: the activity at 2.5 µM was found to be 92.4% and the activity at 10 µM worked out at 38.9%.

For the compound `O=C(Nc1ccc(Cl)cc1C(=O)O)c1ccc(C(=O)c2ccccc2)cc1` [Known compound (4), 5-chloro-2-{[(4-(phenylcarbonyl)phenyl]carbonyl}amino} benzoic acid, reference compound], the activity at 2.5 µM is 79.6% and the activity at 10 µM worked out at 8.1%.

For the compound `Cc1ccc(-c2ccc(OCC(=O)Nc3ccc(Cl)cc3C(=O)O)cc2)cc1` [Example 49, 5-chloro-2-({[(4′-methylbiphenyl-4-yl)oxy]acetyl}amino)benzoic acid], the activity at 2.5 µM stood at 82.1% and the activity at 10 µM was determined as 1.1%.

In the case of `O=C(COC(c1ccccc1)c1ccccc1)Nc1ccc(Cl)cc1C(=O)O` [Example 76, 5-chloro-2-{[(diphenylmethoxy)acetyl]amino}benzoic acid], the activity at 2.5 µM came out at 92.9% and the activity at 10 µM turned out to be 30.6%.

For the compound `O=C(Nc1ccc(Cl)cc1C(=O)O)c1ccc(CC23CC4CC(CC(C4)C2)C3)cc1` [Example 96, 2-({[4-(adamantan-1-ylmethyl)phenyl]carbonyl}amino)-5-chlorobenzoic acid], the activity at 2.5 µM stood at 23.9% and the activity at 10 µM is 5%.

With `O=C(COc1cccc(-c2ccoc2)c1)Nc1ccc(Br)cc1C(=O)O` [Example 15, 5-bromo-2-({[3-(furan-3-yl)phenoxy]acetyl}amino)benzoic acid], the activity at 2.5 µM was 87.3% and the activity at 10 µM is 3%.

On to `Cc1cc(C)cc(-c2ccc(OCC(=O)Nc3ccc(Cl)cc3C(=O)O)cc2)c1` [Example 50, 5-chloro-2-({[(3′,5′-dimethylbiphenyl-4-yl)oxy]acetyl}amino)benzoic acid], for which the activity at 2.5 µM is 58.9% and the activity at 10 µM is 0.1%.

Take `O=C(Nc1ccc(Cl)cc1C(=O)O)c1ccc(C23CC4CC(CC(C4)C2)C3)cc1` [Example 40, 2-({[4-(adamantan-1-yl)phenyl]carbonyl}amino)-5-chlorobenzoic acid]: the activity at 2.5 µM worked out at 19.3% and the activity at 10 µM is 1.7%.

Consider `O=C(Nc1ccc(CCC2CCCCC2)cc1C(=O)O)c1ccc(C2CCCCC2)cc1` [Example 93, 5-(2-cyclohexylethyl)-2-{[(4-cyclohexylphenyl)carbonyl]amino}benzoic acid], for which the activity at 2.5 µM was 0% and the activity at 10 µM was 0%.

For `Cc1ccc(-c2cccc(C(=O)Nc3ccc(Cl)cc3C(=O)O)c2)cc1` [Example 32, 5-chloro-2-{[(4′-methylbiphenyl-3-yl)carbonyl]amino}benzoic acid], the activity at 2.5 µM stood at 94.4% and the activity at 10 µM amounted to 1.7%.

For `O=C(Nc1ccc(C2=CCCCC2)cc1C(=O)O)c1ccc(C2CCCCC2)cc1` [Example 81, 5-(cyclohex-1-en-1-yl)-2-{[(4-cyclohexylphenyl)carbonyl]amino}benzoic acid], the activity at 2.5 µM came out at 1% and the activity at 10 µM was 0%.

As for `O=C(/C=C/c1cccc(-c2ccccc2)c1)Nc1ccc(Cl)cc1C(=O)O` [Example 89, 2-{[(2E)-3-(biphenyl-3-yl)prop-2-enoyl]amino}-5-chlorobenzoic acid], the activity at 2.5 µM worked out at 60.7% and the activity at 10 µM was 0.1%.

For the compound `O=C(Nc1ccc(Cl)cc1C(=O)O)c1ccc2c(c1)CCCC2` [Known compound (5), 5-chloro-2-[(5,6,7,8-tetrahydronaphthalene-2-ylcarbonyl)amino] benzoic acid, reference compound], the activity at 2.5 µM is 98.5% and the activity at 10 µM was found to be 18.8%.

As to `O=C(Nc1ccc(Cl)cc1C(=O)O)c1ccc(C2=CCOCC2)cc1` [Example 34, 5-chloro-2-({[4-(3,6-dihydro-2H-pyran-4-yl)phenyl]carbonyl}amino)benzoic acid], the activity at 2.5 µM came out at 97.1% and the activity at 10 µM came out at 45.1%.

Consider `O=C(/C=C/c1cccc(-c2cccnc2)c1)Nc1ccc(Cl)cc1C(=O)O` [Example 103, sodium 5-chloro-2-({(2E)-3-[3-(pyridin-3-yl)phenyl]prop-2-enoyl}amino)benzoate], for which the activity at 2.5 µM was 92.3% and the activity at 10 µM turned out to be 34.2%.

Consider `O=C(CN1CCN(C(c2ccccc2)c2ccccc2)CC1)Nc1ccc(Cl)cc1C(=O)O` [Example 77, 5-chloro-2-({[4-(diphenylmethyl)piperazin-1-yl]acetyl}amino)benzoic acid], for which the activity at 2.5 µM was found to be 89.6% and the activity at 10 µM is 19.3%.

For `Cc1cc(C)cc(-c2ccc(NC(=O)COc3cccc(-c4ccoc4)c3)c(C(=O)O)c2)c1` [Example 28, 4-({[3-(furan-3-yl)phenoxy]acetyl}amino)-3′,5′-dimethylbiphenyl-3-carboxylic acid], the activity at 2.5 µM amounted to 33.6% and the activity at 10 µM is 0.5%.

`O=C(/C=C/c1cccc(-c2cccc3cccnc23)c1)Nc1ccc(Cl)cc1C(=O)O` [Example 101, sodium 5-chloro-2-({(2E)-3-[3-(quinolin-8-yl)phenyl]prop-2-enoyl}amino)benzoate]: the activity at 2.5 µM came to 24.7% and the activity at 10 µM stood at 0.2%.

`O=C(COc1ccc(C2CCCCC2)cc1)Nc1ccc(Cl)cc1C(=O)O` [Known compound (3), 5-chloro-2-{[(4-cyclohexylphenoxy)acetyl]amino} benzoic acid, reference compound]: the activity at 2.5 µM stood at 36.3% and the activity at 10 µM amounted to 0.3%.

Regarding `O=C(Nc1ccc(Cl)cc1-c1nnn[nH]1)c1cccc(-c2cccc3cccnc23)c1` [Example 102, N-[4-chloro-2-(1H-tetrazol-5-yl)phenyl]-3-(quinolin-8-yl)benzamide], the activity at 2.5 µM came to 91.3% and the activity at 10 µM was 1.5%.

For `O=C(O)c1cc(Cl)ccc1NC(=O)C(c1ccccc1)c1ccccc1` [Known compound (6), 5-chloro-2-[(diphenylacetyl)amino] benzoic acid, reference compound], the activity at 2.5 µM worked out at 85% and the activity at 10 µM is 37.4%.

As for `O=C(Nc1ccc(Cl)cc1C(=O)O)c1cccc(C2=CCCCC2)c1` [Example 79, 5-chloro-2-({[3-(cyclohex-1-en-1-yl)phenyl]carbonyl}amino)benzoic acid], the activity at 2.5 µM stood at 44.5% and the activity at 10 µM was determined as 1.6%.

On to `O=C(Nc1ccc(C2CCCCC2)cc1C(=O)O)c1ccc(C2CCCCC2)cc1` [Example 82, 5-cyclohexyl-2-{[(4-cyclohexylphenyl)carbonyl]amino}benzoic acid], for which the activity at 2.5 µM was 1.7% and the activity at 10 µM came to 1.4%.

As for `O=C(CCc1cccc(-c2ccoc2)c1)Nc1ccc(Cl)cc1C(=O)O` [Example 36, 5-chloro-2-({3-[3-(furan-3-yl)phenyl]propanoyl}amino)benzoic acid], the activity at 2.5 µM worked out at 95.7% and the activity at 10 µM turned out to be 3.7%.

For the compound `O=C(COc1cccc(C2CCCCC2)c1)Nc1ccc(Cl)cc1C(=O)O` [Example 26, 5-chloro-2-{[(3-cyclohexylphenoxy)acetyl]amino}benzoic acid], the activity at 2.5 µM worked out at 98% and the activity at 10 µM stood at 0.6%.

As to `O=C(COc1cccc(-c2ccoc2)c1)Nc1ccc(-c2ccccc2)cc1C(=O)O` [Example 22, 4-({[3-(furan-3-yl)phenoxy]acetyl}amino)biphenyl-3-carboxylic acid], the activity at 2.5 µM was found to be 29.9% and the activity at 10 µM worked out at 0.4%.

As to `CC1(c2ccc(C(=O)Nc3ccc(Cl)cc3C(=O)O)cc2)CCCCC1` [Example 98, 5-chloro-2-({[4-(1-methylcyclohexyl)phenyl]carbonyl}amino)benzoic acid], the activity at 2.5 µM came out at 41.5% and the activity at 10 µM turned out to be 0.1%.

For `CC(C)(C)c1ccc(OCC(=O)Nc2ccc(Cl)cc2C(=O)O)cc1` [Example 18, 2-{[(4-tert-butylphenoxy)acetyl]amino}-5-chlorobenzoic acid], the activity at 2.5 µM came out at 81.4% and the activity at 10 µM came out at 16.1%.

The values above are taken from US10092537B2, “Use for PAI-1 inhibitor” (RENASCIENCE CO., LTD., priority 2013, dated 2018).
